Patent publication US20200071357A1, “ANTIMICROBIAL PEPTIDES” (UNIVERSITETET I TROMSØ - NORGES ARKTISKE UNIVERSITET, priority 2016, published 2020)
Like-named read-outs stand apart in the source and are kept apart here. Where no end group is shown, it is not given here.

Tests used:
Type in all cases: cell-based
[1] = tested on: Corynebacterium glutamicum (Cg, ATCC 13032)
Protocol: (§1) The peptides were screened for antibacterial activity against two strains of Gram-positive and two strains of Gram-negative bacteria; Corynebacterium glutamicum (Cg, ATCC 13032), Staphylococcus aureus (Sa, ATCC 9144), Pseudomonas aeruginosa (Pa, ATCC 27853) and Escherichia coli (Ec, ATCC 25922).
(§2) Cultures stored at −80° C. in glycerol were transferred to Müller-Hinton plates (MH, Difco, Lawrence, Kans., USA) and incubated for 24 h at 35° C. A few colonies of each bacterial strain were transferred to 5 ml liquid MH medium and left shaking at room temperature overnight at 600 rpm. Cultures of actively growing bacteria (20 μl) were inoculated in 5 ml MH medium and left shaking for 2 h at room temperature. The antibacterial assays were performed as previously described by Sperstad, S. V., et al. ((2009) Mol. Immunol. 46, 2604-2612) with the following exception: bacterial cultures were diluted with medium to 2.5-3×10^4 bacteria/ml concentrations. An aliquot of 50 μl (1250-1500 bacterial cells) was added to each well in 96-well Nunclon™ microtiter plates (Nagle Nunc Int., Denmark) preloaded with peptide solution (50 μl).
(§3) The microtiter plates were incubated for 24 h at 35° C. with optical density recorded every hour using an Envision 2103 multilabel reader, controlled by a Wallac Envision manager (PerkinElmer, Conn., USA). Minimum inhibitory concentration (MIC) was defined as a sample showing complete inhibition (as measured by optical density at 595 nm) compared to the negative (growth) controls, consisting of bacteria and water. Oxytetracycline (20 μM) served as a positive (inhibition) control.
(§4) The synthetic peptides were tested for antibacterial activity in concentrations ranging from 200 to 0.1 μM in two-fold dilutions. All tests were performed in triplicates.

[2] = tested on: Escherichia coli (Ec, ATCC 25922)
Protocol: as §1, §2, §3, §4

[3] = tested on: Pseudomonas aeruginosa (Pa, ATCC 27853)
Protocol: as §1, §2, §3, §4

[4] = tested on: Staphylococcus aureus (Sa, ATCC 9144)
Protocol: as §1, §2, §3, §4

human red blood cells = assay: Haemolytic assay; details: for Haemolysis (%) 25 μM: peptide 25 μM; for Haemolysis (%) 25 μM / Haemolysis (%) 200 μM: human red blood cells, one hour at 37° C.; for Haemolysis (%) 200 μM: peptide 200 μM
Protocol: Selected synthesised peptide analogues were also screened for haemolytic activity using human red blood cells as described previously (Sperstad, S. V., et al. (2009) Dev. Comp. Immunol. 33, 583-591). The assay was performed on 96-well U-shaped microtiter plates (Nagle Nunc) with 50 μl peptide sample, 40 μl phosphate-buffered saline (PBS) and 10 μl red blood cells. After one hour of incubation at 37° C. in a shaker, the plate was centrifuged at 200 g for 5 min and the supernatants (60 μl) were carefully transferred to a new flat-bottomed polycarbonate microtiter plate (Nagle Nunc) and the release of haemoglobin (absorbance at 550 nm) was measured on a Synergy H1 multimode reader (BioTek, Vt., USA). Cell suspension added 0.05% Triton X-100 (Sigma-Aldrich, Mo., USA) in PBS served as positive (100% haemolysis) control and cell suspension added PBS served as negative (0% haemolysis, blank) control. The percent haemolysis was calculated using the formula [(Asample-Abaseline)/(Atriton-Abaseline)]×100. The cytotoxic peptide melittin (Sigma-Aldrich) was used as a positive control peptide and for comparison. The experiment was performed in triplicates with peptide concentrations ranging from 200 μM to 1.56 μM in two-fold dilutions.

Aureobasidium pullulans = details: 24 h
Protocol: (§5) The synthetic peptides were also screened for antifungal activity against Candida albicans (ATCC 10231), Aureobasidium pullulans and Rhodotorula sp. (the last two were obtained from Professor Arne Tronsmo, The Norwegian University of Life Sciences, As, Norway). The antifungal assay was performed as previously described (Sperstad, S. V., et al. (2009) Dev. Comp. Immunol. 33, 583-591). Briefly, fungal spores were dissolved in potato dextrose broth (Difco, Lawrence, Kans., USA) to a concentration of 4×10^5 spores/ml. The spores (50 μl) were inoculated on 96-well Nunclon™ microtiter plates containing the synthetic peptides (50 μl) dissolved in MQ-H2O. […] The negative (growth) control consisted of medium and fungal solution. The peptides were tested for activity in concentrations ranging from 100 to 0.1 μM in two-fold serial dilutions. All tests were performed in triplicates.

[5] = tested on: Candida albicans (ATCC 10231); details: ATCC 10231, 24 h
Protocol: as §5

Rhodotorula sp. = details: 24 h
Protocol: as §5

[6] = tested on: A. pullulans, Rhodotorula sp. and C. albicans
Protocol: as §5

Substance | MIC (μM) Cg ([1]; ATCC 13032, 24 h) [µM] | MIC (μM) Ec ([2]; ATCC 25922, 24 h) [µM] | MIC (μM) Pa ([3]; ATCC 27853, 24 h) [µM] | MIC (μM) Sa ([4]; ATCC 9144, 24 h) [µM] | Haemolysis (%) 25 μM (human red blood cells) [%] | Haemolysis (%) 200 μM (human red blood cells) [%] | Haemolysis (%) 200 μM (human red blood cells; listed as full HC) [%] | MIC (μM) A. pullulans (Aureobasidium pullulans) [µM] | MIC (μM) C. albicans [5] [µM] | MIC (μM) Rhodotorula sp. (Rhodotorula sp.) [µM] | MIC (μM) Cg ([1]; ATCC 13032) [µM] | MIC (μM) Ec ([2]; ATCC 25922) [µM] | MIC (μM) Pa ([3]; ATCC 27853) [µM] | MIC (μM) Sa ([4]; ATCC 9144) [µM] | haemolytic activity (human red blood cells; at concentrations closer to the MIC-values) | Haemolysis (%) 200 μM (human red blood cells; listed as lead peptide) [%] | antifungal MICs (range over the three fungi) [6] [µM]
GWWRRTVDKVRNAGRKVAGFASKACGALGH [HC, reference compound] | 0.4 | 0.8 | 1.6 | 3.1 | 13.5 | 74.6 | 75 | 12.5 | 100 | 12.5 | – | – | – | – | – | – | –
GWWRATVAKVRK-NH2 [Peptide R5A, GWWRATVAKVRK-NH2] | 0.8 | 6.3 | 25 | 100 | 0.0 | 0.0 | – | 25 | 25 | 12.5 | – | – | – | – | – | – | –
GWWRRTVAKVRK-NH2 [HC(1-12)A8K12, GWWRRTVAKVRK-NH2] | – | 6.3 | 3.1 | 25 | 2.4 | 25.1 | – | – | – | – | 0.4 | 6.3 | 6.3 | 6.3 | negligible | 25 | 1.6 to 6.3
